According to patent US10414739B2, “Compounds as inhibitors of the YAP/TAZ-TEAD interaction and their use in the treatment of malignant mesothelioma” (INVENTIVA, priority 2015, dated 2019):

Tests used:
[1] = tested on: YAP-TEAD interaction in co-transfected HEK293 cells; assay: Cell-based TEAD-GAL4 transactivation assay (luciferase reporter); settings: Homo sapiens, HEK293 co-transfected with TEAD1-Gal4, YAP mutant (S127A, S397A) and reporter, 24 h
Protocol: Effect of Compounds on the Cell-Based TEAD-GAL4 Transactivation Assay
(§1) To identify inhibitors of YAP-TEAD interaction, a transient transactivation assays was carried out into HEK293 cell line (HEK293 GripTite™ 293 MSR (Invitrogen R795-07)) using plasmids containing the full length TEAD1 sequences, the full length YAP mutant (S127A, S397A) and a luciferase gene reporter. All expression constructs were performed into pSG5 backbone plasmid in which the SV40 promoter was replaced by the CMV promoter. The TEAD1 construct was prepared by cloning the full length human TEAD1 cDNA in fusion with the Gal4 DNA Binding Domain (AA 1-148) into pSG5_CMV to create the TEAD1(FL)_hum_pSG5Gal4_CMV. The full length YAP mutant (S127A, S397A) was also cloned into pSG5_CMV to create the YAP(FL)_hum_pSG5_mutS127A_S397A_CMV. The reporter plasmid GAL4(5×RE)_TK(−105/+56)_pGL3-Basic contains 5 copies of the GAL4 responsive element (5′-TCGGAGGACAGTACTCC-3′) upstream of the thymidine kinase (TK) promoter (−105/+56) inserted in a pGL3-Basic vector. To evaluate the selectivity of our compounds in blocking the YAP-TEAD interaction, a counter-screening protein-protein interaction transactivation assays was also established. Briefly, two other expression plasmids, the pBD-P53 which express the P53 (AA 72-390) in fusion with Gal4 and the pAD-SV40T which express the SV40 large T antigen (AA 84-708,AgT), were created. […] Twenty-four hours later, the luciferase activity was determined after addition of 100 μl of Steady Glo™ luciferase assay system (Promega E2550) according to the manufacturer's directions. Luciferase activity in cell extracts is measured by reading luminescence using the Envision device.
The cellular response was determined by fitting the concentration response curves using a 3-parameter curve fit equation and determining the concentration that inhibited the luciferase activity by 50%.

[2] = molecular target: T1, YAP-TEAD interaction (human YAP2-His6 (50-114) / human TEAD1-GST (209-426)) (Homo sapiens, UniProt P28347); assay: YAP-TEAD AlphaLISA assay; type: binding; settings: for Emax: 2 h, maximal % inhibition, read-out: Max Act.; for Emax / IC50: YAP-TEAD AlphaLISA; for IC50: 2 h equilibration at room temperature
T1 construct: GST-TEAD1 (209-426) produced in E. coli; made in house; host or cells: E. coli
Protocol: YAP-TEAD AlphaLISA Assay for IC50 Value Determination.
YAP-TEAD binding and inhibition was assessed by monitoring the engagement of YAP2 peptide (human YAP2-His6 (50-114) produced in E. coli) with TEAD (human TEAD1-GST (GST-TEAD1 (209-426) produced in E. coli) using the AlphaLisa technology (Perkin-Elmer). Specifically, in a 384 well (Axygen) 5 μl of compounds were dispensed in 100% DMSO following a semi log serial dilution, with a top concentration of […] (10 concentrations). A ‘3 partners solution’ was prepared by mixing AlphaScreen Glutathione Donor beads 15 μg/ml (PerkinElmer), Anti-6×His AlphaLisA Acceptor beads 15 μg/ml (PerkinElmer) and Human YAP2 9 nM in 100 mM NaCl, 25 mM Hepes, 0.1% BSA, 0.5% NoNidet®P40 buffer. In the 384 assay plate (Proxiplate, Perkin-Elmer)) 2 μl of compound at each concentration, 6 μl of buffer, 6 μl of hTEAD1-GST 9 nM and 6 μl of ‘3 partner solution’ were mixed. After 2 h equilibration at room temperature in the dark the plates were read on an Envision instrument (Excitation @ 680 nm/Emission @ 570 nm, Perkin Elmer).
Results were expressed as % inhibition=100×((HighControl−Cpd)/(HighControl−LowControl)), were High control is the maximum response obtained with all components and Low control is the basal response obtained with all components without GST-Tead1.
Cpd is the response obtained for test compounds.
IC50 (half maximal inhibitory concentration) was determined by fitting the concentration response curves using a 3-parameter curve fit equation and determining concentration corresponding to 50% inhibition.

SW620 cell line = assay: Cell proliferation in YAP-independent cell line (EdU); type: cell-based
Protocol: The tumor cell growth inhibitory activity of the YAP-TEAD interaction inhibitors was evaluated in NCI-H2052 mesothelioma cell line harboring a NF2 mutation. This cell line was selected based on its mutational status and the ability of a siRNA directed against YAP, TAZ or TEAD1-4 to inhibit cell proliferation. The nuclear localization of YAP at confluence was also taken into account. Based on these observations we were able to classify several “YAP dependent cells” where YAP is clearly nuclear and in which a cell growth inhibition is observed by using siRNA (NCI-H2052, SKOV-3, ACHN, A549) and the “YAP independent cells” where YAP is preferentially located in the cytoplasm and in which no inhibition of cell growth is observed by using a siRNA (SW620, Met-5a). […] After one day growth in the starvation medium, cells were incubated with compounds. The starting concentration was 30 μM and serial dilutions in DMSO and medium were performed until […] to achieve a final DMSO concentration of 0.5%. The cells were then allowed to grow for 3 days, and then, EdU (Invitrogen, Molecular Probe) was added in each well at a final concentration of 10 μM and the cells were returned to the incubator for additional 24 h. Starvation medium was removed and 100 μl of PFA 4% containing Hoechst dye was adding in each well to fix the cells. Plates were then incubated at room temperature for 15 minutes, washed twice with PBS and the cells were permeabilized by adding 100 μl per well of triton-100 containing 0.3% BSA. After 20 minutes cells were washed with PBS and the EdU detection was performed according to the instructions of the manufacturer. Image acquisition was performed using the ImageXpress Micro and analysed using the MetaXpress software (Molecular Device). Results were expressed as a percent of inhibition (%) of the cell proliferation values obtained with 0.5% DMSO treatment alone. The cellular response was determined by fitting the concentration response curves using a 3 parameter curve fit equation and determining the concentration that inhibited cell growth between 50% and 100%.

[3] = tested on: P53 / SV40 large T antigen (AgT) interaction in HEK293 cells; assay: Counter-screening protein-protein interaction transactivation assay (P53+AgT); type: cell-based; settings: HEK293, same conditions as TEAD-GAL4 assay
Protocol: as §1, with “created. HEK293 cells were seeded at 5×10^4 cells/well in 96 well plates (assay plates) in DMEM medium containing 4.5 g/L D-glucose, 10% high inactivated (HI) fetal bovine serum 1% Glutamax, 1% non-essential amino acid and 1% sodium pyruvate and 0.5% penicillin/streptomycin 37° C. in a humidified atmosphere of 8% CO2.” for “created.”

[4] = tested on: NCI-H2052 mesothelioma cell line; assay: Inhibition of malignant mesothelioma tumor cell growth (EdU proliferation); type: cell-based; settings: NCI-H2052 (NF2 mutated), 1% serum
Protocol: Inhibition of Malignant Mesothelioma Tumor Cell Growth
The tumor cell growth inhibitory activity of the YAP-TEAD interaction inhibitors was evaluated in NCI-H2052 mesothelioma cell line harboring a NF2 mutation. This cell line was selected based on its mutational status and the ability of a siRNA directed against YAP, TAZ or TEAD1-4 to inhibit cell proliferation. The nuclear localization of YAP at confluence was also taken into account. Based on these observations we were able to classify several “YAP dependent cells” where YAP is clearly nuclear and in which a cell growth inhibition is observed by using siRNA (NCI-H2052, SKOV-3, ACHN, A549) and the “YAP independent cells” where YAP is preferentially located in the cytoplasm and in which no inhibition of cell growth is observed by using a siRNA (SW620, Met-5a). […] After one day growth in the starvation medium, cells were incubated with compounds. The starting concentration was 30 μM and serial dilutions in DMSO and medium were performed until […] to achieve a final DMSO concentration of 0.5%. The cells were then allowed to grow for 3 days, and then, EdU (Invitrogen, Molecular Probe) was added in each well at a final concentration of 10 μM and the cells were returned to the incubator for additional 24 h. Starvation medium was removed and 100 μl of PFA 4% containing Hoechst dye was adding in each well to fix the cells. Plates were then incubated at room temperature for 15 minutes, washed twice with PBS and the cells were permeabilized by adding 100 μl per well of triton-100 containing 0.3% BSA. […] Image acquisition was performed using the ImageXpress Micro and analysed using the MetaXpress software (Molecular Device). Results were expressed as a percent of inhibition (%) of the cell proliferation values obtained with 0.5% DMSO treatment alone. The cellular response was determined by fitting the concentration response curves using a 3 parameter curve fit equation and determining the concentration that inhibited cell growth between 50% and 100%.

T1 sequence (P28347 209-426): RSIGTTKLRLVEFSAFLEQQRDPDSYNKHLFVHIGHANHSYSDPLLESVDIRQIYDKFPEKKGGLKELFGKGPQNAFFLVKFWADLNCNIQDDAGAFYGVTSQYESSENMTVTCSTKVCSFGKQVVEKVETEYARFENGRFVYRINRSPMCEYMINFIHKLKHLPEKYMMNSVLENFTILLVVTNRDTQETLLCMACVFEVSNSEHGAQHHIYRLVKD

| SMILES | inhibition at 30 µM [1] [%] | Emax [2] [%] | IC50 [2] [nM] | effect on cell proliferation (SW620 cell line) | inhibitory effect in counter screening assay (P53+AgT) [3] | inhibition of cell proliferation [4] | inhibition at 0.886 µM ([2]; at 0.886 μM (so in the source)) [%] | melting point [°C] |
| --- | --- | --- | --- | --- | --- | --- | --- | --- |
| COCCN(/N=C/c1ccc(O)c(OC)c1)C1=NS(=O)(=O)c2ccccc21 [Example 7, 4-[(E)-[(1,1-dioxo-1,2-benzothiazol-3-yl)-(2-methoxyethyl)hydrazono]-methyl]-2-methoxy-phenol] | 50 to 75 | 94 | 4580 | without showing any effect | no inhibitory effect was observed | inhibited |  |  |
| COc1cc(/C=N/N(C)C2=NS(=O)(=O)c3ccccc32)ccc1O [Example 1, 4-[(E)-[(1,1-dioxo-1,2-benzothiazol-3-yl)-methyl-hydrazono]methyl]-2-methoxy-phenol] | 50 to 75 | 92 | 886 | without showing any effect | no inhibitory effect was observed | inhibited | 92 | 218 |
| COc1cc(/C=N/N(CCO)C2=NS(=O)(=O)c3ccccc32)ccc1O [Example 2, 4-[(E)-[(1,1-dioxo-1,2-benzothiazol-3-yl)-(2-hydroxyethyl)-hydrazono]methyl]-2-methoxy-phenol] | 50 to 75 | 93 | 949 | without showing any effect | no inhibitory effect was observed | inhibited |  |  |
